Laboratory results: patent US5646316A, “Bile acid inhibitors of metalloproteinase enzymes” (OsteoArthritis Sciences, Inc., priority 1995, dated 1997)
Read-outs that look alike come from different tables or passages of the source.

Legend:
chondrocytes = test: Chondrocyte Cell Culture Matrix Breakdown Assay (35S release, rhIL-1α stimulated); format: cell-based, calf; conditions: Bos taurus, Chondrocyte; for inhibition at 50 µM: read-out: percent inhibition, Cell Culture
Method: A cell culture assay was used to measure the ability of compounds to slow the degradation of the extracellular matrix by a metalloproteinase. This assay measured the amount ^35 S released from chondrocytes grown in a media with ^35 S labeled sodium sulfate. The cell culture assay was carried out as follows:
Two or three 1 to 3 week old calf joints were obtained from an abattoir. The proximal end of the shank was at about 4-5" long to facilitate immobilization in the holder. The joint was kept cool and transported on ice. The exterior of the intact joints was washed well with a suitable anti-microbial soap, rinsed clean with warm water, rinsed in betadine and then finally rinsed with 70% ethanol. Up to this point all steps were done in a manner to ensure that the joint was kept as clean as possible. All subsequent steps were performed in a sterile field (i.e., in a Edgeguard laminar flow tissue culture hood). The joint was immobilized and the synovial fluid was aspirated with a needle and syringe. The joint was then cut open to expose the articular cartilage using a #21 scalpel. Using locking hemostats, forceps and a #15 scalpel, the cartilage was excised in full thickness pieces. Care was taken not to cut too deep because bleeding would have occurred if the subchondral bone, was penetrated. The cartilage pieces were placed into a 50 mL centrifuge tube containing 25 mL of Delbecco's phosphate buffered saline (D-PBS) supplemented with 1% antibiotic solution (penicillin, streptomycin and fungizone; GIBCO/BRL). The slices from each joint were then placed into separate 50 mL centrifuge tubes. The D-PBS was decanted and replaced with 25 mL of fresh D-PBS supplemented with antibiotics and subsequently agitated gently.
The cartilage pieces were transferred to a fresh 50 mL centrifuge tube and rinsed once more with 25 mL of D-PBS minus antibiotics. An enzymatic digestion solution containing 1 mg/mL of hyaluronidase in serum-free 1:1 DMEM/Ham's F-12 (DMEM/F12) was prepared. This solution was filter sterilized with […] Milex--GV filter and kept on ice until ready to use. The cartilage pieces were digested with approximately 5 mL of hyaluronidase solution per joint for 2×15 minutes at 37° C. in the 50 mL centrifuge tube with gentle agitation at the 15 minute mark. This procedure removed residual hyaluronic acid from the surface of the chips. The enzymatic digestion solution was then aspirated and the cartilage pieces were rinsed with 25 mL of D-PBS.
A second enzymatic digestion solution containing 2.5 mg trypsin and 2 mg collagenase P per mL serum-free DMEM/F12 was prepared. This solution was also filter sterilized with a […] Millex--GV filter and kept on ice until ready to use. The cartilage pieces were digested with approximately 5 mL of trypsin: collagenase solution per joint for 2×15 minutes at 37° C. in the 50 mL centrifuge tube with gentle agitation at the 15 minute mark. This procedure removed the synovial fibroblasts and any adherent connective tissue from the surface of the chips. The enzymatic digestion solution was then carefully removed and saved and the cartilage pieces were rinsed with 25 mL of D-PBS.
A third enzymatic solution containing 2 mgs of collagenase P (BMB) per mL serum-free DMEM/F12 was prepared. This solution was filter sterilized with a […] Millex--GV filter and kept on ice until ready to use. The pre-digested cartilage pieces were finally digested with approximately 20 mL of enzymatic digestion solution per joint for 5-6 hours at 37° C. in a Bellco stirring digestion flask, at which point the cartilage was fully digested away.
The enzymes in the synovial fibroblast and chondrocyte digest were neutralized by addition of an equal volume of DMEM/F12 supplemented with 5% fetal bovine serum. Fibroblasts were plated in DMEM at a cellular density of 6.6×10^3 cells per cm^2. […]

[1] = test system: bovine cartilage explants; test: Bovine Cartilage Explant Assay (35S-GAG release, rhIL-1α stimulated; tissue culture); format: cell-based; conditions: Bos taurus, read-out: percent inhibition of extracellular matrix damage, Tissue Culture
Excerpt: A tissue culture assay was used to measure the ability of the compounds of the present invention to slow the degradation of the extracellular matrix by metalloproteinases. This assay measured the amount of ^35 S-glycosaminoglycan (^35 S-GAG) released from labeled bovine cartilage explants.
Knee joints from a 1 to 3 week old calf were obtained immediately after sacrifice from the Abattoir and then transported on ice. The intact joints were washed well with tap water and soaked in 50% (v/v) Povidine iodine solution, obtained from Burre National, Inc., Baltimore, Md. All subsequent steps were performed in a laminar flow tissue culture hood using standard sterile technique. The joint was immobilized in a shank holder and the joint capsule was cut open to expose the articular cartilage. Cartilage explant plugs, approximately 15 mg wet weight, were removed from the flat articulating surfaces in the lower-most region of the knee joint using a sterile steel cork-borer and collected in a 250 mL roller bottle containing about 100 mL fresh Delbecco's minimum essential medium (DMEM), obtained from Gibco BRC, Life Technologies, Gaithersburg, Md., containing 4.5 g/1 (D)-glucose and (L)-glutamine, without sodium pyruvate. The fresh media also contained enough Hepes buffer and sodium bicarbonate such that the pH was about 7.4. The media was then further supplemented just before use with 100 units Penicillin, 100 μg Streptomycin, and 50 μg (L)-ascorbic acid per mL of medium.
Once collected, the explant plugs were washed four times with 50 mL fresh DMEM. The plugs were then placed in the incubator for a minimum of 1 hour to equilibrate, before proceeding to make disks from the articulating surface of each plug. A 1 mm thick disk was sliced from individual plugs from the end that was the articulating surface of the joint. The plug was held steady in the sterile template (4 mm diameter×1.5 mm deep) using sterile forceps. A scalpel blade was used to carefully slice off the disk. Only the superficial articulating surface responded well in culture.
Individual disks obtained were transferred to a tissue culture flask containing about 100 mL fresh media. The flask containing the disks was placed in an incubator at 37° C. (with 5% CO2, 95% air) and allowed to equilibrate overnight and at least one additional day before labeling. When ready to label, the old media was replaced with 50 mL fresh media containing about 500 μCi ^35 S-Sodium Sulfate. The plugs were labeled in bulk for about 48 hours. The next morning, the "hot" media was removed and replaced with fresh "cold" media. The disks were again allowed to equilibrate overnight before being used for actual experiments.
The media in which the disks were stored was changed immediately prior to performing the assay. The disks were then returned to the incubator until the test media and the two control media had been prepared. The test media consisted of a bile acid or bile acid derivative (50 μM) being tested for its ability to inhibit extracellular matrix degradation and concomitant recombinant human Interleukin rhIL-1α (5 ng/mL) in fresh DMEM solution. The control media were identical to the test media, except that the first control media lacked rhIL-1α and the second control media lacked an inhibitor, i.e. a bile acid or bile acid derivative. 250 μL of each of the test and control media were transferred to separate 96-well TC plates. Flamed forceps were used to transfer a disk from the incubator to each 96-well TC plates that had been filled with either the test media or one of the two control media.
The TC plates were then placed in the incubator and cultured for 3-4 days (initial incubation with rhIL-1α alpha takes at least 3 days to stimulate endogenous metalloproteinases). A 50 μL aliquot of media from each TC plate was saved and counted. The rest of the media was removed with a suction device.
The cartilage disks from each TC plate were also saved for counting. […]

[2] = at 50 μM, rhIL-1α 5 ng/mL, 3-4 days
[3] = at 50 μM, rhIL-1α 1 ng/ml, 22-24 hours

Compound | IC50 (chondrocytes; rhIL-1α 1 ng/ml, 22-24 hours) [µM] | inhibition at 50 µM [1, 2] [%] | inhibition at 50 µM (chondrocytes; [3]) [%] | inhibition at 50 µM (chondrocytes) [%] | inhibition at 50 µM [1] [%]
C[C@H](CCC(=O)NO)[C@H]1CC[C@H]2[C@@H]3CC[C@@H]4C[C@H](O)CC[C@]4(C)[C@H]3CC[C@]12C [Compound 13, Lithocholylhydroxamic Acid] | 20 | 44 | – | – | –
CCOC(=O)[C@H](CS)NC(=O)[C@H](Cc1ccccc1)NC(=O)CC[C@@H](C)[C@H]1CC[C@H]2[C@@H]3CC[C@@H]4C[C@H](O)CC[C@]4(C)[C@H]3CC[C@]12C [Compound 19, Lithocholyl-(L)-Phenylalanyl-(L)-Cysteine Ethyl Ester] | – | 32 | 4 | – | –
CC(C)C[C@H](NC(=O)CC[C@@H](C)[C@H]1CC[C@H]2[C@@H]3CC[C@@H]4C[C@H](O)CC[C@]4(C)[C@H]3CC[C@]12C)C(=O)NO [Compound 9, Lithocholyl-(L)-Leucine Hydroxamic Acid] | – | 84 | 43 | – | –
C[C@H](CCC(=O)N[C@@H](Cc1ccccc1)C(=O)NO)[C@H]1CC[C@H]2[C@@H]3CC[C@@H]4C[C@H](O)CC[C@]4(C)[C@H]3CC[C@]12C [Compound 15, Lithocholyl-(L)-Phenylalanine Hydroxamic Acid] | – | 54 | 38 | – | –
CC(C)C[C@H](NC(=O)CC[C@@H](C)[C@H]1CC[C@H]2[C@@H]3[C@H](O)C[C@@H]4C[C@H](O)CC[C@]4(C)[C@H]3CC[C@]12C)C(=O)NO [Compound 10, Chenodeoxycholyl-(L)-Leucine Hydroxamic Acid] | 80 | 85 | – | – | –
C[C@H](CCC(=O)N[C@@H](Cc1ccccc1)C(=O)NC1CCSC1=O)[C@H]1CC[C@H]2[C@@H]3CC[C@@H]4C[C@H](O)CC[C@]4(C)[C@H]3CC[C@]12C (some centres unmarked) [Compound 20, Lithocholyl-Phenylalanylhomocysteine Thiolactone] | – | -13 | 16 | – | –
C[C@H](CCC(=O)NCCC[N+](C)(C)CCCS(=O)(=O)[O-])[C@H]1CC[C@H]2[C@@H]3[C@H](O)C[C@@H]4C[C@H](O)CC[C@]4(C)[C@H]3C[C@H](O)[C@]12C [Compound 8, 3-[(3-cholamidopropyl)dimethylammonio)-1-propanesulfonate, reference compound] | – | – | – | 2 | -120
C[C@H](CCC(=O)N[C@@H](Cc1ccccc1)C(=O)NO)[C@H]1CC[C@H]2[C@@H]3[C@H](O)C[C@@H]4C[C@H](O)CC[C@]4(C)[C@H]3CC[C@]12C [Compound 16, Chenodeoxycholyl-(L)-Phenylalanine Hydroxamic Acid] | – | 94 | 85 | – | –
C[C@H](CCC(=O)NOCc1ccccc1)[C@H]1CC[C@H]2[C@@H]3[C@H](O)C[C@@H]4C[C@H](O)CC[C@]4(C)[C@H]3CC[C@]12C [Compound 12, Chenodeoxycholyl-O-Benzylhyroxamate] | – | 6 | 64 | – | –
C[C@H](CCC(=O)O)[C@H]1CC[C@H]2[C@@H]3CC[C@@H]4C[C@H](O)CC[C@]4(C)[C@H]3CC[C@]12C [Compound 1, Lithocholic acid, reference compound] | – | 68 | 95 | – | –
